Experimental data taken from patent US12157730B2, “Heteroaryl derivative, method for producing same, and pharmaceutical composition comprising same as effective component” (VORONOI INC., priority 2019, dated 2024).

Molecular target: T1, Ba/F3 cell EGFR Exon20 ins NPH (Homo sapiens, UniProt P00533, INS773NPH)
T1 construct: expressed in transfected cells; host or cells: Ba/F3
Test: Ba/F3 cell proliferation suppression, EGFR Exon20 ins NPH
Assay type: cell-based
Details: GI50 class; Ba/F3 cell line with NPH inserted at Exon20 of EGFR; 72 hours
Summary of the method: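 Cells (3000–5000/well) plated 24 h before compound, 12-point 3-fold dilutions at 0.3 nM to 50 um final; Ba/F3 lines grown with 5 ng/ml IL-3. Viability by CellTiter-Glo luminescence after 72 h, growth ratio vs control, GI50 from curves; triplicate.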

Ba/F3 (NPH) Activity	Compound
A (GI50 < 50 nM)	C#Cc1cccc([C@H]2CCON2c2cc(Nc3cc(NC(=O)C=C)c(N4CCC(N5C[C@H]6C[C@@H]5CO6)CC4)cc3OC)ncn2)c1 [compound 619, N-(2-(4-((1R,4R)-2-oxa-5-azabicyclo [2.2.1]heptane-5-yl)piperidine-1-yl)-5-((6-((R)-3-(3-ethynylphenyl)isoxazolidine-2-yl)pyrimidine-4-yl)amino)-4-methoxyphenyl) acrylamide]
A (GI50 < 50 nM)	C=CC(=O)Nc1cc(Nc2cc(N3OCC[C@@H]3c3cc(F)cc(F)c3)ncn2)c(OC)cc1N1CCC(N2C[C@@H]3C[C@H]2CN3CC)CC1 [Example 264, N-(5-((6-((R)-3-(3,5-difluorophenyl)isoxazolidine-2-yl)pyrimidine-4-yl)amino)-2-(4-((1S,4S)-5-ethyl-2,5-diazabicyclo[2.2.1]heptane-2-yl)piperidine-1-yl)-4-methoxyphenyl) acrylamide]
A (GI50 < 50 nM)	C=CC(=O)Nc1cc(Nc2cc(N3OCC[C@@H]3c3cccs3)ncn2)c(OC)cc1N1CCC(N2C[C@H]3C[C@@H]2CO3)CC1 [compound 930, N-(2-(4-((1R,4R)-2-oxa-5-azabicyclo [2.2.1]heptane-5-yl)piperidine-1-yl)-4-methoxy-5-((6-((R)-3-(thiophene-2-yl)isoxazolidine-2-yl)pyrimidine-4-yl)amino)phenyl)acrylamide]
B (50 nM ≤ GI50 < 500 nM)	C=CC(=O)Nc1cc(Nc2cc(N3OCC[C@@H]3c3ccc(C)nc3)ncn2)c(OC)cc1N1CCC(N2C[C@H]3C[C@@H]2CO3)CC1 [Example 227, N-(2-(4-((1R,4R)-2-oxa-5-azabicyclo[2.2.1]heptane-5-yl)piperidine-1-yl)-4-methoxy-5-((6-((R)-3-(6-methylpyridine-3-yl)isoxazolidine-2-yl)pyrimidine-4-yl)amino)phenyl)acrylamide]
B (50 nM ≤ GI50 < 500 nM)	C=CC(=O)Nc1cc(Nc2cc(N3OCC[C@@H]3c3ccc(C)nc3)ncn2)c(OC)cc1N1CCN(C2CCN(C)CC2)CC1 [Example 48, N-(4-methoxy-2-(4-(1-methylpiperidine-4-yl)piperazine-1-yl)-5-((6-((R)-3-(6-methylpyridine-3-yl)isoxazolidine-2-yl)pyrimidine-4-yl)amino)phenyl) acrylamide]
A (GI50 < 50 nM)	C=CC(=O)Nc1cc(Nc2cc(N3OCC[C@@H]3c3cccc(Cl)c3C)ncn2)c(OC)cc1N1CCC(N2CCN(C3CC3)[C@H](C)C2)CC1 [Example 152, N-(5-((6-((R)-3-(3-chloro-2-methylphenyl)isoxazolidine-2-yl)pyrimidine-4-yl)amino)-2-(4-((R)-4-cyclopropyl-3-methylpiperazine-1-yl)piperidine-1-yl)-4-methoxyphenyl) acrylamide]
A (GI50 < 50 nM)	C=CC(=O)Nc1cc(Nc2cc(N3OCC[C@@H]3c3ccc(F)c(Cl)c3)ncn2)c(OC)cc1N1CCC(N2CCN(CC)CC2)CC1 [Example 263, N-(5-((6-((R)-3-(3-chloro-4-fluorophenyl)isoxazolidine-2-yl)pyrimidine-4-yl)amino)-2-(4-(4-ethylpiperazine-1-yl)piperidine-1-yl)-4-methoxyphenyl) acrylamide]
A (GI50 < 50 nM)	C=CC(=O)Nc1cc(Nc2cc(N3OCC[C@@H]3c3ccc(F)c(Cl)c3)ncn2)c(OC)cc1N1C[C@@H]2C[C@H]1CO2 [compound 902, N-(2-((1S,4S)-2-oxa-5-azabicyclo [2.2.1]heptane-5-yl)-5-((6-((R)-3-(3-chloro-4-fluorophenyl)isoxazolidine-2-yl)pyrimidine-4-yl)amino)-4-methoxyphenyl) acrylamide]
B (50 nM ≤ GI50 < 500 nM)	C=CC(=O)Nc1cc(Nc2cc(N3OCC[C@@H]3c3ccc4ccccc4c3)ncn2)c(OC)cc1N1CCC(N2C[C@H]3C[C@@H]2CO3)CC1 [compound 557, N-(2-(4-((1R,4R)-2-oxa-5-azabicyclo[2.2.1]heptane-5-yl)piperidine-1-yl)-4-methoxy-5-((6-((R)-3-(naphthalene-2-yl)isoxazolidine-2-yl)pyrimidine-4-yl)amino)phenyl)acrylamide]
A (GI50 < 50 nM)	C=CC(=O)Nc1cc(Nc2cc(N3OCC[C@@H]3c3cccc(C#N)c3)ncn2)c(OC)cc1N1CCC(N2CCN(C3CC3)[C@@H](C)C2)CC1 [Example 125, N-(5-((6-((R)-3-(3-cyanophenyl)isoxazolidine-2-yl)pyrimidine-4-yl)amino)-2-(4-((S)-4-cyclopropyl-3-methylpiperazine-1-yl)piperidine-1-yl)-4-methoxyphenyl) acrylamide]

The remaining lines, values behind:

Compound	Ba/F3 (NPH) Activity
C#Cc1cccc([C@H]2CCON2c2cc(Nc3cc(NC(=O)C=C)c(N4CCC(N5CCC(N(C)C)CC5)CC4)cc3OC)ncn2)c1 [compound 655, N-(2-(4-(dimethylamino)-[1,4'-bipiperidine]-1'-yl)-5-((6-((R)-3-(3-ethynylphenyl)isoxazolidine-2-yl)pyrimidine-4-yl)amino)-4-methoxyphenyl) acrylamide]	B (50 nM ≤ GI50 < 500 nM)
C=CC(=O)Nc1cc(Nc2cc(N3OCC[C@@H]3c3ccc(Cl)c(Cl)c3)ncn2)c(OC)cc1N1CCOCC1 [compound 615, N-(5-((6-((R)-3-(3,4-dichlorophenyl)isoxazolidine-2-yl)pyrimidine-4-yl)amino)-4-methoxy-2-morpholinophenyl) acrylamide]	A (GI50 < 50 nM)
C=CC(=O)Nc1cc(Nc2cc(N3OCC[C@@H]3c3ccc(F)c(Cl)c3)ncn2)c(OC)cc1N1CC[C@@H](N(C)C)C1 [compound 756, N-(5-((6-((R)-3-(3-chloro-4-fluorophenyl)isoxazolidine-2-yl)pyrimidine-4-yl)amino)-2-((R)-3-(dimethylamino)pyrolidine-1-yl)-4-methoxyphenyl) acrylamide]	A (GI50 < 50 nM)
C=CC(=O)Nc1cc(Nc2cc(N3OCC[C@@H]3c3c(F)ccc(F)c3Cl)ncn2)c(OC)cc1N1CCN(C2CC2)CC1 [compound 691, N-(5-((6-((R)-3-(2-chloro-3,6-difluorophenyl)isoxazolidine-2-yl)pyrimidine-4-yl)amino)-2-(4-cyclopropylpiperazine-1-yl)-4-methoxyphenyl) acrylamide]	B (50 nM ≤ GI50 < 500 nM)
C=CC(=O)Nc1cc(Nc2cc(N3OCC[C@@H]3c3cccc(Cl)c3)ncn2)c(OC)cc1N1CCN(C)CC1 [compound 360, N-(5-((6-((R)-3-(3-chlorophenyl)isoxazolidine-2-yl)pyrimidine-4-yl)amino)-4-methoxy-2-(4-methylpiperazine-1-yl)phenyl)acrylamide]	A (GI50 < 50 nM)
C=CC(=O)Nc1cc(Nc2cc(N3OCC[C@@H]3Cc3cccc(F)c3C)ncn2)c(OC)cc1N1CCN(CC)CC1 [compound 1003, N-(2-(4-ethylpiperazine-1-yl)-5-((6-(S)-(3-(3-fluoro-2-methylbenzyl)isoxazolidine-2-yl)pyrimidine-4-yl)amino)-4-methoxyphenyl) acrylamide]	A (GI50 < 50 nM)
C=CC(=O)Nc1cc(Nc2cc(N3OCC[C@H]3c3cc(F)cc(F)c3)ncn2)c(OC)cc1N1CCC(N2CCN(C3CC3)CC2)CC1 [Example 118]	C (500 nM ≤ GI50 < 5000 nM)
C=CC(=O)Nc1cc(Nc2cc(N3OCC[C@@H]3c3cccc(F)c3F)ncn2)c(OC)cc1N1C[C@@H]2CCN(C)[C@@H]2C1 [compound 876, N-(5-((6-((R)-3-(2,3-difluorophenyl)isoxazolidine-2-yl)pyrimidine-4-yl)amino)-4-methoxy-2-((3aS,6aS)-1-methylhexahydropyrrolo [3,4-b]pyrrole-5(1H)-yl)phenyl) acrylamide]	A (GI50 < 50 nM)
C=CC(=O)Nc1cc(Nc2cc(N3OCC[C@@H]3c3cccc(Cl)c3F)ncn2)c(OC)cc1N1CC[C@@H](N(C)C)C1 [compound 834, N-(5-((6-((R)-3-(3-chloro-2-fluorophenyl)isoxazolidine-2-yl)pyrimidine-4-yl)amino)-2-((R)-3-(dimethylamino)pyrolidine-1-yl)-4-methoxyphenyl) acrylamide]	A (GI50 < 50 nM)
C=CC(=O)Nc1cc(Nc2cc(N3OCC[C@@H]3c3cccc(F)c3Cl)ncn2)c(OC)cc1N1CCC(N2CCN(C3COC3)CC2)CC1 [Example 201, N-(5-((6-((R)-3-(2-chloro-3-fluorophenyl)isoxazolidine-2-yl)pyrimidine-4-yl)amino)-4-methoxy-2-(4-(4-(oxetane-3-yl)piperazine-1-yl)piperidine-1-yl)phenyl)acrylamide]	A (GI50 < 50 nM)
C=CC(=O)Nc1cc(Nc2cc(N3OCC[C@H]3c3c(F)cccc3F)ncn2)c(OC)cc1N1CCC(N2CCOCC2)CC1 [compound 897, N-(5-((6-((S)-3-(2,6-difluorophenyl)isoxazolidine-2-yl)pyrimidine-4-yl)amino)-4-methoxy-2-(4-morpholinopiperidine-1-yl)phenyl)acrylamide]	C (500 nM ≤ GI50 < 5000 nM)
C=CC(=O)Nc1cc(Nc2cc(N3OCC[C@@H]3c3cccc(F)c3)ncn2)c(OC)cc1N1CCN(CC)CC1 [Example 246, N-(2-(4-ethylpiperazine-1-yl)-5-((6-((R)-3-(3-fluorophenyl)isoxazolidine-2-yl)pyrimidine-4-yl)amino)-4-methoxyphenyl) acrylamide]	A (GI50 < 50 nM)
C=CC(=O)Nc1cc(Nc2cc(N3OCC[C@@H]3c3ccc4ccccc4c3)ncn2)c(OC)cc1N1C[C@H](C)O[C@@H](C)C1 [compound 660, N-(2-((2S,6S)-2,6-dimethylmorpholino)-4-methoxy-5-((6-((R)-3-(naphthalene-2-yl)isoxazolidine-2-yl)pyrimidine-4-yl)amino)phenyl)acrylamide]	C (500 nM ≤ GI50 < 5000 nM)
N-(2-(4-(4- (cyclopropylmethyl) piperazine-1-yl) piperidine-1-yl)-5-((6- ((S)-3-(2,6)- difluorophenyl) isoxazolidine-2-yl) pyrimidine-4-yl)amino)- 4-methoxyphenyl) acrylamide [Example 95]	C (500 nM ≤ GI50 < 5000 nM)
